For experiment [1], the target named is T1, protein disulfide isomerase A1 (PDIA1) (Homo sapiens, UniProt P07237).
T1 construct: gene P4HB; full-length PDIA1 overexpressed in HEK293T (anti-myc detected) for labelling, also endogenous
The experiment in a line: in-gel fluorescence after CuAAC, SKOV-3 wildtype versus PDIA1 knockout and HEK293T overexpression. The format is cell-based. The following applies: 500 nM, 1 h.

The target of experiment [2] is T1, protein disulfide isomerase A1 (PDIA1). The experiment in a line: insulin reductase (insulin aggregation) assay. The following applies: covalent; a-site C53. The format is biochemical.

Molecules are shown by their SMILES.

T1 sequence (P07237 18-508): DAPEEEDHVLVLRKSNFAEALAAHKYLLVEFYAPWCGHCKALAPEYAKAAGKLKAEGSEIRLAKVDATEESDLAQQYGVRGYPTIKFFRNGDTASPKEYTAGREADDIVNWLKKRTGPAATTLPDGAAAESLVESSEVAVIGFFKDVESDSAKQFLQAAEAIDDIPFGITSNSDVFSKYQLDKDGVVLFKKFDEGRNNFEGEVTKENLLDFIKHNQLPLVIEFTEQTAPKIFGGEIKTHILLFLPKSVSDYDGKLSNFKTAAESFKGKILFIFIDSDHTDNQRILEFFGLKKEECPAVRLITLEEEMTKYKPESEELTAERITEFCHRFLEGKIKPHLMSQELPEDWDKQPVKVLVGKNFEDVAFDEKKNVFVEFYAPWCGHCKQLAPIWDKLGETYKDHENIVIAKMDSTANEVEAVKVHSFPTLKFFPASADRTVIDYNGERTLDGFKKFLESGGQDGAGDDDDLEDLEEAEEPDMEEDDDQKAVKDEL

Consider `C#CCN(CCNC(=O)C1(N(CC=C)C(=O)c2ccc(Cl)cc2)CCN(Cc2ccccc2)CC1)C(=O)CCl` [4a, FFSMP 4a], for which the covalent labelling entry in experiment [1] is listed as “confirming PDIA1 as a predominant protein target of biologically active FFSMP 4a”. Moreover, the “inhibition of PDIA1 activity” value in experiment [2] was “FFSMP 4a was shown to inhibit PDIA1 at low μM concentrations”.

(Values after PMC11483914, “Appendage- and Scaffold-Diverse Electrophilic and Photoreactive Probes for Integrated Phenotypic Screening–Target Identification Campaigns via a Minimalist Bifunctional Isocyanide” (ACS Omega, 2024).)
